The source of these data is ChEMBL document CHEMBL5614419, “Discovery of novel BCL6-Targeting PROTACs with effective antitumor activities against DLBCL in vitro and in vivo” (Eur J Med Chem, 2024).

The source made the active and inactive calls. The rule behind the calls is not given here.

In data set [1] the target is T1, Protein cereblon/B-cell lymphoma 6 protein (Homo sapiens, UniProt Q96SW2+P41182). Nature of the data set: PROTAC activity at CRBN/BCL6 in BCL6-dependent human SU-DHL-4 cells assessed as induction of BCL6 degradation by measuring degradation rate at 1 uM incubated for 48 hrs by Western blot analysis relative to control. The format is cell-based.
T1 sequence (Q96SW2 whole entry, looked up, other chains not shown): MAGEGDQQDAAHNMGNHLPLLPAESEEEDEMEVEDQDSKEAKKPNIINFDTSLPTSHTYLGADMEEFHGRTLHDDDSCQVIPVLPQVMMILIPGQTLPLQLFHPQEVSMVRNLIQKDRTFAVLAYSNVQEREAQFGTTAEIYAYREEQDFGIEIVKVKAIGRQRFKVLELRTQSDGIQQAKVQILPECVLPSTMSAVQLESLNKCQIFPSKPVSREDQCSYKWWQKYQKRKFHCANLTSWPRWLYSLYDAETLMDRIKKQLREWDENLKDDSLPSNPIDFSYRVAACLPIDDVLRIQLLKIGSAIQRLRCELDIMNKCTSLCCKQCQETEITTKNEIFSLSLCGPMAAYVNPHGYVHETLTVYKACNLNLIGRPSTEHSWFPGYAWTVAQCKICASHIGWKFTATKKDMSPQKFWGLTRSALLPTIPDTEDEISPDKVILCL
The target of data set [2] is T1, Protein cereblon/B-cell lymphoma 6 protein. The experiment in a line: PROTAC activity at CRBN/BCL6 in BCL6-dependent human SU-DHL-4 cells assessed as induction of BCL6 degradation by measuring degradation rate at 10 uM incubated for 48 hrs by Western blot analysis relative to control. The format is cell-based.
Data set [3] deals with SUD4. Nature of the data set: Antiproliferative activity against BCL6-dependent human SU-DHL-4 cells assessed as inhibition of cell growth at 1 uM measured after 6 days by MTT assay relative to control. In kind it is functional. The conditions noted are these: SU-DHL-4, 144 h, time 6 day. On the technique in general: Tetrazolium dyes change colour on reduction, which living cells bring about.

The test system of data set [4] is SUD4. Nature of the data set: Antiproliferative activity against BCL6-dependent human SU-DHL-4 cells assessed as inhibition of cell growth at 10 uM measured after 6 days by MTT assay relative to control. In kind it is functional. The conditions noted are these: SU-DHL-4, 144 h, time 6 day.
In data set [5] the target is T1, Protein cereblon/B-cell lymphoma 6 protein. Nature of the data set: PROTAC activity at CRBN/BCL6 in human SU-DHL-4 cells assessed as induction of BCL6 degradation incubated for 48 hrs by Western blot analysis. In kind it is cell-based.
The target is the same in data set [6]. Nature of the data set: PROTAC activity at CRBN/BCL6 in human SU-DHL-4 cells assessed as induction of BCL6 degradation by measuring maximal efficacy incubated for 48 hrs by Western blot analysis relative to control. The format is cell-based.
In another data set the test system is DOHH-2. The experiment in a line: Antiproliferative activity against BCL6-dependent human DOHH-2 cells assessed as inhibition in cell growth measured after 6 days by MTS assay. The conditions noted are these: DOHH-2, 144 h.
The subject of a further data set is SU-DHL-6. Nature of the data set: Antiproliferative activity against BCL6-dependent human SU-DHL-6 cells assessed as inhibition in cell growth measured after 6 days by MTT assay. The conditions noted are these: SU-DHL-6, 144 h.
For data set [7], the system named is SUD4. The experiment in a line: Antiproliferative activity against BCL6-dependent human SU-DHL-4 cells assessed as inhibition in cell growth measured after 6 days by MTT assay. The conditions noted are these: SU-DHL-4, 144 h.
The test system of a further data set is OCI-Ly1. The experiment in a line: Antiproliferative activity against BCL6-dependent human OCI-Ly1 cells assessed as inhibition in cell growth measured after 6 days by MTT assay. The conditions noted are these: OCI-Ly1, 144 h.
Data set [8] is described as follows: Cytotoxicity against human WI-38 VA13 cells assessed as inhibition in cell growth measured after 6 days by MTT assay. The format is toxicity, cell-based. The conditions noted are these: WI-38 VA13 cells.
The target of data set [9] is T1, Protein cereblon/B-cell lymphoma 6 protein. Nature of the data set: PROTAC activity at CRBN/BCL6 in human DOHH-2 cells assessed as induction of BCL6 degradation by measuring maximal efficacy incubated for 48 hrs by Western blot analysis relative to control. In kind it is cell-based.
Data set [10] can be described thus: Cytotoxicity against HEK293T cells assessed as inhibition in cell growth measured after 6 days by MTT assay. The format is toxicity, cell-based, HEK-293T. The conditions noted are these: human, HEK293T cells.
In data set [11] the target is T1, Protein cereblon/B-cell lymphoma 6 protein. Nature of the data set: PROTAC activity at CRBN/BCL6 in human DOHH-2 cells assessed as induction of BCL6 degradation incubated for 48 hrs by Western blot analysis. The format is cell-based.
For data set [12], the target named is B-cell lymphoma 6 protein (Homo sapiens, UniProt P41182). Nature of the data set: Binding affinity to fluorescent labeled recombinant BCL-6 BTB domain (unknown origin) assessed as dissociation constant incubated for 10 mins by MST analysis.
Data set [13] deals with SUD4. The experiment in a line: Upregulation of p21 protein level in human SU-DHL-4 cells at 5 uM preincubated for 48 hrs followed by compound elution and measured after 72 hrs by Western blot analysis. The format is functional, cell-based. (Immunoblotting shows a protein as a band on a membrane.)
Data set [14] concerns SUD4. The experiment in a line: Upregulation of p27 protein level in human SU-DHL-4 cells at 5 uM preincubated for 48 hrs followed by compound elution and measured after 72 hrs by Western blot analysis. The format is functional, cell-based.

As to `COc1cc(Nc2nc(N3CCN(CCOCCNc4ccc5c(c4)C(=O)C(C4CCC(=O)NC4=O)C5=O)CC3)ncc2F)ccc1NC(=O)c1ccc(C2=CCCC2)s1` (configuration not stated), the Activity in data set [1] was found to be 5.2%; in data set [2] it was 21.6%.
As a reminder, the inhibition is the drop in the measured response relative to a control, in per cent. Regarding `COc1cc(Nc2nc(N3CCN(CCCCCNc4cccc5c4C(=O)N(C4CCC(=O)NC4=O)C5=O)CC3)ncc2F)ccc1NC(=O)c1ccc(C2=CCCC2)s1` (configuration not stated), the inhibition at 1 µM with SUD4 [3] came to 58.7%. Further, the Activity worked out at 58.4% in data set [1] and 64% in data set [2]. For the same molecule, in the data set with SUD4 [4], the inhibition at 10 µM was determined as 70.1%.
On to `COc1cc(Nc2nc(N3CCN(CCOCCOCCNc4cccc5c4C(=O)N(C4CCC(=O)NC4=O)C5=O)CC3)ncc2F)ccc1NC(=O)c1ccc(C2=CCCC2)s1` (configuration not stated), for which the Activity stood at 35.6% in data set [1] and 38.3% in data set [2].
Take `COc1cc(Nc2nc(N3CCN(C(=O)CCOCCOCCOCCOCCNc4cccc5c4C(=O)N(C4CCC(=O)NC4=O)C5=O)CC3)ncc2F)ccc1NC(=O)c1ccc(C2=CCCC2)s1` (configuration not stated): the Activity in data set [1] is 12.2%.
In the case of `COc1cc(Nc2nc(N3CCN(C(=O)CCOCCNc4cc5c(cc4F)C(=O)C(C4CCC(=O)NC4=O)C5=O)CC3)ncc2F)ccc1NC(=O)c1ccc(C2=CCCC2)s1` (configuration not stated), the Activity in data set [1] and in data set [2] was 0% each time.
For the molecule `COc1cc(Nc2nc(N3CCN(CCCCNc4cccc5c4C(=O)N(C4CCC(=O)NC4=O)C5=O)CC3)ncc2F)ccc1NC(=O)c1ccc(C2=CCCC2)s1` (configuration not stated), the results for the Activity in data set [1] and in [2] were 40.6% and 36.3%, respectively.
`COc1cc(Nc2nc(N3CCN(C(=O)CCOCCOCCNc4cccc5c4C(=O)N(C4CCC(=O)NC4=O)C5=O)CC3)ncc2F)ccc1NC(=O)c1ccc(C2=CCCC2)s1` (configuration not stated): the values for the Activity in data set [1] and in [2] were 28.2% and 48.1%, respectively.
For the molecule `COc1cc(Nc2nc(N3CCN(C(=O)CCCCNc4cccc5c4C(=O)N(C4CCC(=O)NC4=O)C5=O)CC3)ncc2F)ccc1NC(=O)c1ccc(C2=CCCC2)s1` (configuration not stated), the Activity in data set [1] was 0.1%; in data set [2] it was 31.7%.
As a reminder, the DC50 is the concentration giving 50% degradation. A word on the Emax: it is the greatest response seen or fitted, relative to the assay's reference. Broadly, the IC50 is the concentration that inhibits the measured activity by half. As to `COc1cc(Nc2nc(N3CCN(CCOCCNc4cccc5c4C(=O)N(C4CCC(=O)N(C)C4=O)C5=O)CC3)ncc2F)ccc1NC(=O)c1ccc(C2=CCCC2)s1` (configuration not stated), the DC50 in data set [5] and in [11] was greater than 10 µM throughout. The Emax in data set [6] is 29.4%; in data set [9], 11.6%. In addition, the IC50 in the data set with DOHH-2, with SU-DHL-6, with SUD4 [7] and with OCI-Ly1 was greater than 10 µM each time. The IC50 at 6 days in [8] and in data set [10] was greater than 10 µM in each case. Besides, the results for the Activity in data set [1] and in data set [2] were 11.9% and 20.7%, respectively.
One may read the Kd as the free concentration of one partner at which half of the binding sites on the other are occupied at equilibrium, for simple one-to-one binding. For the molecule `CC[C@H](C)[C@H](NC(=O)[C@H](CO)NC(=O)[C@H](CCCNC(=N)N)NC(=O)CNC(=O)[C@H](C)NC(=O)[C@H](CCC(=O)O)NC(=O)[C@H](CCCCN)NC(=O)[C@@H](NC(=O)[C@@H](NC(=O)[C@H](C)NC(=O)[C@@H](NC(=O)[C@@H](N)CC(C)C)C(C)C)[C@@H](C)O)C(C)C)C(=O)N[C@@H](Cc1cnc[nH]1)C(=O)N[C@@H](CCC(=O)O)C(=O)N[C@H](C(=O)N1CCC[C@H]1C(=O)N[C@@H](CCCNC(=N)N)C(=O)O)[C@@H](C)CC`, the Kd in [12] was 30 µM.
As for `COc1cc(Nc2nc(N3CCN(C(=O)CC4CCN(c5cccc6c5C(=O)N(C5CCC(=O)NC5=O)C6=O)CC4)CC3)ncc2F)ccc1NC(=O)c1ccc(C2=CCCC2)s1` (configuration not stated), the Activity in [1] came to 7.1%; in data set [2], 2.7%.
In the same order, the values of `COc1cc(Nc2nc(N3CCN(C(=O)CCOCCNc4cccc5c4CC(C4CCC(=O)NC4=O)C5=O)CC3)ncc2F)ccc1NC(=O)c1ccc(C2=CCCC2)s1` (configuration not stated) are 11.1% and 37%.
Consider `COc1cc(Nc2nc(N3CCN(C(=O)CCOCCOCCOCCNc4cccc5c4C(=O)N(C4CCC(=O)NC4=O)C5=O)CC3)ncc2F)ccc1NC(=O)c1ccc(C2=CCCC2)s1` (configuration not stated), for which the figures for the Activity in data set [1] and in [2] were 34.7% and 41.2%, respectively.
`COc1cc(Nc2nc(N3CCN(C(=O)CCCCCNc4cccc5c4C(=O)N(C4CCC(=O)NC4=O)C5=O)CC3)ncc2F)ccc1NC(=O)c1ccc(C2=CCCC2)s1` (configuration not stated): the inhibition at 1 µM in the data set on SUD4 [3] amounted to 31%. In addition, the Activity in [1] came to 38%; in [2], 54.1%. The inhibition at 10 µM in the data set on SUD4 [4] was determined as 41.3%.
In the case of `COc1cc(Nc2nc(N3CCN(C(=O)CCOCCNc4ccc5c(c4)C(=O)C(C4CCC(=O)NC4=O)C5=O)CC3)ncc2F)ccc1NC(=O)c1ccc(C2=CCCC2)s1` (configuration not stated), the Activity in [1] came out at 36.6%; in [2], 34%.
On to `COc1cc(Nc2nc(N3CCN(C(=O)CCOCC#Cc4cccc5c4CN(C4CCC(=O)NC4=O)C5=O)CC3)ncc2F)ccc1NC(=O)c1ccc(C2=CCCC2)s1` (configuration not stated), for which the inhibition at 1 µM in the data set on SUD4 [3] was 5.7%. The figures for the Activity in data set [1] and in [2] were 27.4% and 73.2%, respectively. For the same molecule, the inhibition at 10 µM with SUD4 [4] turned out to be 98%.
Regarding `COc1cc(Nc2nc(N3CCN(CCOCCOc4cccc5c4C(=O)C(C4CCC(=O)NC4=O)C5=O)CC3)ncc2F)ccc1NC(=O)c1ccc(C2=CCCC2)s1` (configuration not stated), the Activity came out at 13.5% in [1] and 26.3% in data set [2].
For `COc1cc(Nc2nc(N3CCN(C(=O)CCOCCNc4cccc5c4C(=O)N(C4CCC(=O)NC4=O)C5=O)CC3)ncc2F)ccc1NC(=O)c1ccc(C2=CCCC2)s1` (configuration not stated), the inhibition at 1 µM with SUD4 [3] worked out at 47%. For the same molecule, the Activity in [1] came to 55.7%; in data set [2] it was 46.3%. The inhibition at 10 µM in the data set with SUD4 [4] is 72.9%.
As for `COc1cc(Nc2nc(N3CCN(CCOCCNc4cccc5c4CC(C4CCC(=O)NC4=O)C5=O)CC3)ncc2F)ccc1NC(=O)c1ccc(C2=CCCC2)s1` (configuration not stated), the Activity in [1] turned out to be 15.7%; in data set [2], 37.1%.
Turning to `COc1cc(Nc2nc(N3CCN(C(=O)CCC4CCN(c5cccc6c5C(=O)N(C5CCC(=O)NC5=O)C6=O)CC4)CC3)ncc2F)ccc1NC(=O)c1ccc(C2=CCCC2)s1` (configuration not stated), the Activity in [1] was 23.1%; in data set [2], 24.1%.
With `COc1cc(Nc2nc(N3C[C@@H](C)N[C@@H](C)C3)ncc2F)ccc1NC(=O)c1ccc(C2=CCCC2)s1`, the outcome in the data set with SUD4 [13] and with SUD4 [14] was inactive.
Consider `COc1cc(Nc2nc(N3CCN(C(=O)CCCCCCNc4cccc5c4C(=O)N(C4CCC(=O)NC4=O)C5=O)CC3)ncc2F)ccc1NC(=O)c1ccc(C2=CCCC2)s1` (configuration not stated), for which the Activity in data set [1] worked out at 22.7%; in [2], 1.4%.
With `COc1cc(Nc2nc(N3CCN(CCCCCCNc4cccc5c4C(=O)N(C4CCC(=O)NC4=O)C5=O)CC3)ncc2F)ccc1NC(=O)c1ccc(C2=CCCC2)s1` (configuration not stated), the figures for the Activity in [1] and in data set [2] were 42.9% and 55.8%, respectively.
